Data taken from patent publication US20140073634A1 (Institute For Applied Cancer Science/The University of …, priority 2012, published 2014).

Test system: 293T-HRE-GFP-luc cells
Test: Cell-based reporter assay for IC50 determinations (HRE-luciferase, hypoxia)
Details: 6 h, 6 hrs hypoxia (1% O2), luminescence
Method in brief: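 293T-HRE-GFP-luc cells were pre-incubated with serially diluted compounds for 30 min under normoxia, then held 6 hrs in hypoxia (1% O2, 37° C). HRE-driven luciferase read by Steadylite Plus luminescence; IC50 from four-parameter logistic fit.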

| Structure (SMILES) | IC50 [nM] |
| --- | --- |
| Cc1cccc(Cn2cc(-c3nc(-c4ccc(OC(F)(F)F)cc4)no3)ccc2=O)c1 [Example 152, 1-[(3-methylphenyl)methyl]-5-{3-[4-(trifluoromethoxy)phenyl]-1,2,4-oxadiazo-5-yl}-1,2-dihydropyridin-2-one] | < 100 |
| N#CC1CCN(c2cc(Cn3cc(-c4nc(-c5ccc(OC(F)(F)F)cc5)no4)ccc3=O)ccn2)CC1 [Example 153, 1-{4-[(2-oxo-5-{3-[4-(trifluoromethoxy)phenyl]-1,2,4-oxadiazol-5-yl}-1,2-dihydropyridin-1-yl)methyl]pyridin-2-yl}piperidine-4-carbonitrile] | < 100 |
| CC1(C)CCN(c2cc(Cn3cc(-c4nc(-c5ccc(OC(F)(F)F)cc5)no4)ccc3=O)ccn2)CC1 [Example 154, 1-{[2-(4,4-dimethylpiperidin-1-yl)pyridin-4-yl]methyl}-5-{3-[4-(trifluoromethoxy)phenyl]-1,2,4-oxadiazol-5-yl}-1,2-dihydropyridin-2-one] | < 100 |
| COC(=O)Cc1cccc(Cn2cc(-c3nc(-c4ccc(OC(F)(F)F)cc4)no3)ccc2=O)c1 [Example 155, methyl 2-{3-[(2-oxo-5-{3-[4-(trifluoromethoxy)phenyl]-1,2,4-oxadiazol-5-yl}-1,2-dihydropyridin-1-yl)methyl]phenyl}acetate] | < 100 |
| CN1CCN(C(=O)Cc2cccc(Cn3cc(-c4nc(-c5ccc(OC(F)(F)F)cc5)no4)ccc3=O)c2)CC1 [Example 156, 1-({3-[2-(4-methylpiperazin-1-yl)-2-oxoethyl]phenyl}methyl)-5-{3-[4-(trifluoromethoxy)phenyl]-1,2,4-oxadiazol-5-yl}-1,2-dihydropyridin-2-one] | < 100 |
| CN(C)C(=O)Cc1cccc(Cn2cc(-c3nc(-c4ccc(OC(F)(F)F)cc4)no3)ccc2=O)c1 [Example 157, N,N-dimethyl-2-{3-[(2-oxo-5-{3-[4-(trifluoromethoxy)phenyl]-1,2,4-oxadiazol-5-yl}-1,2-dihydropyridin-1-yl)methyl]phenyl}acetamide] | < 100 |
| O=c1ccc(-c2nc(-c3ccc(OC(F)(F)F)cc3)no2)cn1Cc1ccnc(N2CCOCC2)c1 [Example 158, 1-{[2-(morpholin-4-yl)pyridin-4-yl]methyl}-5-{3-[4-(trifluoromethoxy)phenyl]-1,2,4-oxadiazol-5-yl}-1,2-dihydropyridin-2-one] | < 100 |
| O=c1ccc(-c2nc(-c3ccc(OC(F)(F)F)cc3)no2)cn1Cc1ccnc(N2CCCC2)c1 [Example 159, 1-{[2-(pyrrolidin-1-yl)pyridin-4-yl]methyl}-5-{3-[4-(trifluoromethoxy)phenyl]-1,2,4-oxadiazol-5-yl}-1,2-dihydropyridin-2-one] | < 100 |
| O=c1ccc(-c2nc(-c3ccc(OC(F)(F)F)cc3)no2)cn1Cc1cccc(N2CCCCC2)c1 [Example 160, 1-{[3-(piperidin-1-yl)phenyl]methyl}-5-{3-[4-(trifluoromethoxy)phenyl]-1,2,4-oxadiazol-5-yl}-1,2-dihydropyridin-2-one] | < 100 |
| CCS(=O)(=O)c1cccc(Cn2cc(-c3nc(-c4ccc(OC(F)(F)F)cc4)no3)ccc2=O)c1 [Example 161, 1-{[3-(ethanesulfonyl)phenyl]methyl}-5-{3-[4-(trifluoromethoxy)phenyl]-1,2,4-oxadiazol-5-yl}-1,2-dihydropyridin-2-one] | < 100 |
| COC(=O)C(C)(C)c1cccc(Cn2cc(-c3nc(-c4ccc(OC(F)(F)F)cc4)no3)ccc2=O)c1 [Example 162, methyl 2-methyl-2-{3-[(2-oxo-5-{3-[4-(trifluoromethoxy)phenyl]-1,2,4-oxadiazol-5-yl}-1,2-dihydropyridin-1-yl)methyl]phenyl}propanoate] | < 100 |
| O=c1ccc(-c2nc(-c3ccc(OC(F)(F)F)cc3)no2)cn1Cc1ccnc(N2CCC(O)CC2)c1 [Example 163, 1-{[2-(4-hydroxypiperidin-1-yl)pyridin-4-yl]methyl}-5-{3-[4-(trifluoromethoxy)phenyl]-1,2,4-oxadiazol-5-yl}-1,2-dihydropyridin-2-one] | < 100 |
| CCN(CC)S(=O)(=O)c1cccc(Cn2cc(-c3nc(-c4ccc(OC(F)(F)F)cc4)no3)ccc2=O)c1 [Example 164, N,N-diethyl-3-[(2-oxo-5-{3-[4-(trifluoromethoxy)phenyl]-1,2,4-oxadiazol-5-yl}-1,2-dihydropyridin-1-yl)methyl]benzene-1-sulfonamide] | < 100 |
| CNS(=O)(=O)c1cccc(Cn2cc(-c3nc(-c4ccc(OC(F)(F)F)cc4)no3)ccc2=O)c1 [Example 165, N-methyl-3-[(2-oxo-5-{3-[4-(trifluoromethoxy)phenyl]-1,2,4-oxadiazol-5-yl}-1,2-dihydropyridin-1-yl)methyl]benzene-1-sulfonamide] | < 100 |
| O=c1ccc(-c2nc(-c3ccc(OC(F)(F)F)cc3)no2)cn1Cc1cccc(OC2COC2)c1 [Example 166, 1-{[3-(oxetan-3-yloxy)phenyl]methyl}-5-{3-[4-(trifluoromethoxy)phenyl]-1,2,4-oxadiazol-5-yl}-1,2-dihydropyridin-2-one] | < 100 |
| O=C1CN(c2cccc(Cn3cc(-c4nc(-c5ccc(OC(F)(F)F)cc5)no4)ccc3=O)c2)CCN1 [Example 167, 4-{3-[(2-oxo-5-{3-[4-(trifluoromethoxy)phenyl]-1,2,4-oxadiazol-5-yl}-1,2-dihydropyridin-1-yl)methyl]phenyl}piperazin-2-one] | < 100 |
| O=c1ccc(-c2nc(-c3ccc(OC(F)(F)F)cc3)no2)cn1Cc1cccc(N2CCCS2(=O)=O)c1 [Example 168, 1-(3-(1,1-dioxidoisothiazolidin-2-yl)benzyl)-5-(3-(4-(trifluoromethoxy)phenyl)-1,2,4-oxadiazol-5-yl)pyridin-2(1H)-one] | < 100 |
| CN1CCN(c2cccc(Cn3cc(-c4nc(-c5ccc(OC(F)(F)F)cc5)no4)ccc3=O)c2)CC1=O [Example 169, 1-methyl-4-{3-[(2-oxo-5-{3-[4-(trifluoromethoxy)phenyl]-1,2,4-oxadiazol-5-yl}-1,2-dihydropyridin-1-yl)methyl]phenyl}piperazin-2-one] | < 100 |
| CS(=O)(=O)CCCOc1cccc(Cn2cc(-c3nc(-c4ccc(OC(F)(F)F)cc4)no3)ccc2=O)c1 [Example 170, 1-{[3-(3-methanesulfonylpropoxy)phenyl]methyl}-5-{3-[4-(trifluoromethoxy)phenyl]-1,2,4-oxadiazol-5-yl}-1,2-dihydropyridin-2-one] | 100 to 1000 |
| O=c1ccc(-c2nc(-c3ccc(OC(F)(F)F)cc3)no2)cn1Cc1cccc(CBr)c1 [Example 171, 1-{[3-(bromomethyl)phenyl]methyl}-5-{3-[4-(trifluoromethoxy)phenyl]-1,2,4-oxadiazol-5-yl}-1,2-dihydropyridin-2-one] | < 100 |
| COC(=O)/C=C/c1cccc(Cn2cc(-c3nc(-c4ccc(OC(F)(F)F)cc4)no3)ccc2=O)c1 [Example 172, methyl (2E)-3-{3-[(2-oxo-5-{3-[4-(trifluoromethoxy)phenyl]-1,2,4-oxadiazol-5-yl}-1,2-dihydropyridin-1-yl)methyl]phenyl}prop-2-enoate] | < 100 |
| CS(=O)(=O)C1CCN(c2cccc(Cn3nc(-c4nc(-c5ccc(OC(F)(F)F)cc5)no4)ccc3=O)c2)CC1 [Example 173, 2-{[3-(4-methanesulfonylpiperidin-1-yl)phenyl]methyl}-6-{3-[4-(trifluoromethoxy)phenyl]-1,2,4-oxadiazol-5-yl}-2,3-dihydropyridazin-3-one] | < 100 |
